The results in this text go back to patent publication US5656638A, “Telomerase inhibitors” (Geron Corporation, priority 1995, dated 1997).

For this test, the target named is T1, telomerase (Homo sapiens, UniProt O14746).
T1 construct: placing cells, tissues, or preferably a cellular extract or other preparation containing telomerase in contact with; endogenous in cells
Kind of test: telomerase inhibition, IC50 (Table 1). It counts as biochemical. An excerpt:
One method used to identify compounds of the invention that inhibit telomerase activity involves placing cells, tissues, or preferably a cellular extract or other preparation containing telomerase in contact with several known concentrations of a test compound in a buffer compatible with telomerase activity. […] Other methods for determining the inhibitory concentration of a compound of the invention against telomerase can be employed as will be apparent to those of skill in the art based on the disclosure herein.
With the above-described methods, IC50 values for several of the compounds of the present invention were determined. The values reported in Table 1 below are only approximate values; more exact IC50 values can be obtained by repetitive testing.

[1] abbreviates: Table 1, approximate values only, read-out: IC50.
The mark [2] stands for this setting: summary of Table 1, approximate IC50 values, read-out: IC50 (bound stated in text).

SMILES strings stand for the structures. Entries after “also recorded” stand apart in the source; their conditions may differ. Like-named read-outs stand apart in the source and are kept apart here.

T1 sequence (O14746 whole entry): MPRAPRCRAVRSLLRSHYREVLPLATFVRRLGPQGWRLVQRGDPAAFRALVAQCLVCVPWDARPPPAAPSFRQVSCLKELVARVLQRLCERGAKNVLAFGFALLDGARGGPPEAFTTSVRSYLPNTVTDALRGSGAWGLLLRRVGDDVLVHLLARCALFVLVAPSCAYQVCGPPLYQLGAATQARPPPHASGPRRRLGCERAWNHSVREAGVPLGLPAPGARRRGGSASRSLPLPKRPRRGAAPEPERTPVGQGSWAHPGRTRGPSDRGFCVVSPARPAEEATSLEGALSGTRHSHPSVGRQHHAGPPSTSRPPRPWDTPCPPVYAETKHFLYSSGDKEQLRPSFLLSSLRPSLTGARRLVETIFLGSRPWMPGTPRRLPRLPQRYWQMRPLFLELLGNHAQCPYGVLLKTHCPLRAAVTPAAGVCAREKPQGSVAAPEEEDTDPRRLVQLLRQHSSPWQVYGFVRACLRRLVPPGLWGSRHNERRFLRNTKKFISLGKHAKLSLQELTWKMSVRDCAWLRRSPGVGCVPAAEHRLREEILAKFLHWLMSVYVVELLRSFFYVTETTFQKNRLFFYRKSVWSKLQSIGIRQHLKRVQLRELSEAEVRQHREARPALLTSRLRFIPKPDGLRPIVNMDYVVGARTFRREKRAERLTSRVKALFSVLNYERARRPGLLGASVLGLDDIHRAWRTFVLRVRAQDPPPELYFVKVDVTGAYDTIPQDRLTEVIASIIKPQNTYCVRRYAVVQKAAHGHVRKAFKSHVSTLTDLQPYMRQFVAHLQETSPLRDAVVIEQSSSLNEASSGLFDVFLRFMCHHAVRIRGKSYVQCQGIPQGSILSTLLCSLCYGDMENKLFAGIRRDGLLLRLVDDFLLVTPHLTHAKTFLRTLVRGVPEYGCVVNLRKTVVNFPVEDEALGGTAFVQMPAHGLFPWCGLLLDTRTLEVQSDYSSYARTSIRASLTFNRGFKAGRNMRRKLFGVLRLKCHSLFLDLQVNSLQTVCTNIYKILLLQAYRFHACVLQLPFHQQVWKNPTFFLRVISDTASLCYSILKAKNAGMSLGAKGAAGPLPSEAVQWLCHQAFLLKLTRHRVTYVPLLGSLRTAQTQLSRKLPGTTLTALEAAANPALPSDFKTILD
T1 sequence (O60832 whole entry partner): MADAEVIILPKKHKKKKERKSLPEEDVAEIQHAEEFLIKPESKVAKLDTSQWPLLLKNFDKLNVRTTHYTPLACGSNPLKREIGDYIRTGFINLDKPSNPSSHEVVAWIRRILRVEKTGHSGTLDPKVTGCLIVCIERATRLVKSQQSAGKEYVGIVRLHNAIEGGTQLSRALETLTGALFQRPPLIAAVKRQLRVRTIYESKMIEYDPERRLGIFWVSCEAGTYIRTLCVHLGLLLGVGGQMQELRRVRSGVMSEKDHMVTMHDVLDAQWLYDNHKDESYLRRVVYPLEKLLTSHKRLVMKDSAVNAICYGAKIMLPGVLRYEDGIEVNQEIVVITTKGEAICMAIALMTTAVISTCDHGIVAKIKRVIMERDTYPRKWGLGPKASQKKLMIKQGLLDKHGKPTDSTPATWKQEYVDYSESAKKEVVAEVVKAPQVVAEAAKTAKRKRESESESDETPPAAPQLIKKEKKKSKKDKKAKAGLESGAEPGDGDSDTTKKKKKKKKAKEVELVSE
T1 sequence (Q9NPE3 whole entry partner): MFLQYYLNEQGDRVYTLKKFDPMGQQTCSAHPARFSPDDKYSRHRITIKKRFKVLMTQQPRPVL
T1 sequence (Q9NX24 whole entry partner): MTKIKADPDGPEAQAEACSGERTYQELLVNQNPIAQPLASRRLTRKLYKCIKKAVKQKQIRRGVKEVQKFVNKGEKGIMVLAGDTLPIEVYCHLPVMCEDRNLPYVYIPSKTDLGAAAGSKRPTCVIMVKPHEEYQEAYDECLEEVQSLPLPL
T1 sequence (Q9NY12 whole entry partner): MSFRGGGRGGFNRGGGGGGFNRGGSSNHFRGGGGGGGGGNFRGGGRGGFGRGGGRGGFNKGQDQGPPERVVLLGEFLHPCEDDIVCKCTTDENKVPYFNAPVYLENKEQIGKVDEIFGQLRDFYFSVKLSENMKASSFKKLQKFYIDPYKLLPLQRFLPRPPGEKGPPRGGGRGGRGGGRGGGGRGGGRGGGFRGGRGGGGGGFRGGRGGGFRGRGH

For the compound `Nc1c(C(=O)c2ccc(Cl)c(Cl)c2)sc2nc(C=NC3C4CC5CC(C4)CC3C5)ccc12` (centres unmarked) [Compound V], the “anti-telomerase activity (in words)” value was “strong telomerase inhibitors”. Further, the IC50 under setting [1] was 30 µM. For the same compound, the IC50 under setting [2] was under 30 µM.
As for `Nc1c(C(=O)c2ccc(Cl)cc2Cl)sc2nc(C=O)ccc12` [Compound VI], the “anti-telomerase activity (in words)” value was “particularly good anti-telomerase activity; also recorded: strong telomerase inhibitors”. Under setting [1], the IC50 is 29 µM. Moreover, the IC50 under setting [2] is under 30 µM.
Turning to `Nc1c(C(=O)c2ccc(Cl)c(Cl)c2)sc2nc(C=NNc3ccccc3)ccc12` [Compound XI], the “anti-telomerase activity (in words)” value is listed as “good anti-telomerase activity”. Further, the IC50 under setting [1] came out at 42 µM.
For `Cc1ccc(NN=Cc2ccc3c(N)c(C(=O)c4ccc(Br)cc4)sc3n2)cc1` [Compound XIII], the “anti-telomerase activity (in words)” value is listed as “good anti-telomerase activity”. For the same compound, under setting [1], the concentration for half-maximal inhibition (IC50) came to 18 µM.
As for `Nc1c(C(=O)c2ccc(Cl)c(Cl)c2)sc2nc(C=O)ccc12` [Compound VIII], the “anti-telomerase activity (in words)” value is reported as “particularly good anti-telomerase activity; also recorded: strong telomerase inhibitors”. The IC50 under setting [1] was 28 µM. For the same compound, under setting [2], the IC50 was under 30 µM.
In the case of `CC(C)(C)c1ccc(-c2noc(-c3sc4nc(C=O)ccc4c3N)n2)cc1` [Compound X], the IC50 under setting [1] amounted to 42 µM.
Turning to `Nc1c(C(=O)c2ccc(Br)cc2)sc2nc(C=O)ccc12` [Compound VII], the “anti-telomerase activity (in words)” value is “particularly good anti-telomerase activity”. Moreover, under setting [1], the IC50 stood at 48 µM.
Take `Nc1c(C(=O)c2ccc(Cl)cc2Cl)sc2nc(C=NC3C4CC5CC(C4)CC3C5)ccc12` (centres unmarked) [Compound IV]: the IC50 under setting [1] came out at 26 µM.
Regarding `Nc1c(-c2ncc(C(F)(F)F)cc2Cl)sc2nc(C=O)ccc12` [Compound IX], the “anti-telomerase activity (in words)” value is listed as “strong telomerase inhibitors”. Besides, the 50% inhibitory concentration (IC50) under setting [1] stood at 24 µM. Also, the 50% inhibitory concentration (IC50) under setting [2] is under 30 µM.
For `Nc1c(C(=O)c2ccc(Cl)c(Cl)c2)sc2nc(C=NNc3ccc(Cl)cc3)ccc12` [Compound XII] the same measures were “good anti-telomerase activity; also recorded: strong telomerase inhibitors”, 21 µM and under 30 µM.
For `Nc1c(C(=O)c2ccc(Br)cc2)sc2nc(C=NC3C4CC5CC(C4)CC3C5)ccc12` (centres unmarked) [Compound III], the “anti-telomerase activity (in words)” value is “strong telomerase inhibitors”. Further, the IC50 under setting [1] was 4 µM. Further, the IC50 under setting [2] is under 30 µM.
In the case of `Nc1c(C(=O)c2ccc(Cl)c(Cl)c2)oc2nc(C=O)ccc12` [Compound XIV], under setting [1], the concentration for half-maximal inhibition (IC50) worked out at 31 µM.
Take `Cc1cc(N=Cc2ccc3c(N)c(-c4ccc(Cl)c(Cl)c4)oc3n2)n[nH]1` [Compound XV]: the “anti-telomerase activity (in words)” value is listed as “good anti-telomerase activity”. Besides, the IC50 under setting [1] came out at 49 µM.

As usually defined, the IC50 is the midpoint of a concentration-inhibition curve.
